Assay results published in US11987404B2, “Method for filling containers with a powder” (NTC S.R.L., priority 2019, dated 2024).

Tests used:
Format in all cases: physicochemical
[1] = Accelerated stability 40° C./75% RH in heat-sealed envelope; settings: accelerated stability conditions
Experimental: (§1) The stability of the mannitol in the form of powder object of the present invention was tested, housed inside a heat-sealed envelope in compostable material. 50 grams of said powder were stored for 6 months at 40° C./75% RH (Test 1) and for 6 months at 25° C./60% RH (Test 2). Checks were made of the parameters indicated in Tables 8 and 9 following the times T0-T6 identified as: T0=moment of insertion of the air-conditioned environment, T1=after one month from the moment T0, T2=after two months from the moment T0, T3=after three months from the time T0, T4=after four months from the time T0, T5=after five months from the time T0, T6=after six months from the time T0.

[2] = Dissolution study of mannitol powder in non-carbonated commercial waters; settings: 150 g of mannitol in 900 ml of water, weakly acidic or neutral pH
Source text: The solubility of the mannitol powder was then studied in the following three types of non-carbonated commercial waters: • Sangemini: PH at source 6.2; • Antica Fonte Boario: PH at source 7.0; • Panna Toscana: pH at source 8.0.

[3] = Long term stability 25° C./60% RH in heat-sealed envelope; settings: long-term stability in the climatic area II
Experimental: as §1

[4] = Bulk density (Ph. Eur. 2.2.42)
Experimental: As regards the bulk density outlined above, in particular the poured bulk density, such parameter is measured according to the European Pharmacopoeia reference standard (Ph. EUR.), current edition 2.2.42, in force at the priority date of this patent application. In the context of the present invention, the expression “bulk” implies that the powder density value is calculated in a manner formally analogous to an absolute density (such as for a solid body or for a liquid). However, since a powder has empty inter-particle spaces, the total volume occupied by the powder (i.e. its outer bulk), thus including the inter-particle spaces between the various particles, should be taken into account when evaluating bulk density. More precisely, according to the aforementioned standard, a 100 ml class A graduated flask is filled and brought to volume with the powder particles, after which the bulk density is calculated as the ratio between the weight of the powder inside the flask and the volume (100 ml) occupied by that weight of the powder particles. Mannitol powder is a poorly flowing powder, which has a certain tendency, just like all fine powders, to agglomerate under pressure. […]

- measured parameters over the test [1]: remained stable
- complete dissolution time [2]: more than 6 minutes
- measured parameters over the test [3]: remained stable
- transient density ([4]; after passing through 3 mm mesh of the sieve shaker, measured in the laboratory): about 0.73 g/ml
- poured bulk density ([4]; coherent mass before the drum centrifugal sieve shaker): about 0.60 g/ml
Structure (SMILES): OC[C@@H](O)[C@@H](O)[C@H](O)[C@H](O)CO [mannitol, Mannitol]
